According to patent publication US9758527B2, “Cyclohexene derivative, preparation method therefor, and pharmaceutical composition for preventing or treating metabolic diseases, containing same as active ingredient” (HYUNDAI PHARM CO., LTD., priority 2014, dated 2017):
Read-outs that look alike come from different tables or passages of the source.

Target: T1, G protein-coupled receptor 119 (GPR-119) (Mesocricetus auratus, UniProt A0A1U8CD06)
T1 construct: hamster-derived β-cells containing G protein-coupled receptor 119 (GPR-119), HIT-T15 cells; host or cells: HIT-T15 (hamster pancreatic β-cells)
T1 sequence (A0A1U8CD06 1-334): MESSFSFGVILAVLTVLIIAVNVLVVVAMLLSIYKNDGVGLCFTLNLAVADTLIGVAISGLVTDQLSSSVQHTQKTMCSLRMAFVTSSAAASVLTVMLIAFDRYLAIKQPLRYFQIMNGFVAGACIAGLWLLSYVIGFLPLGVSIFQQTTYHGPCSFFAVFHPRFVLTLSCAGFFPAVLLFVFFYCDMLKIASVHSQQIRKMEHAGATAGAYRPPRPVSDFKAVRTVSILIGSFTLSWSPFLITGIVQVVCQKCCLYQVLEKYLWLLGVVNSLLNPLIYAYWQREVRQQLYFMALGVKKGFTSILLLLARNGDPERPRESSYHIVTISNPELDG
Assay: Evaluation of cAMP activity in HIT-T15 cells (HTRF cAMP dynamic kit)
Format: cell-based, hamster
Conditions: cAMP activation
Experimental: To check whether the cyclohexene derivatives according to the present invention activate cyclic adenosine monophosphate (cAMP), experiments were carried out, as follows.
The HIT-T15 cells were plated on a 96-well plate at 60,000 cells per well. On the next day of plating, the cells were treated with a varying concentration of each of the example compounds according to the present invention, and incubated at 37° C. for an hour. In this case, each of the treated compounds was used at six concentrations, ranging from […], to treat the cells.
The cyclic adenosine monophosphate (cAMP) activity was measured according to the manufacturer's instruction using a cAMP dynamic kit commercially available from Cis Bio Inc. (Bedford, Mass.). The cells were lysed, and a level of cAMP was determined by a competitive immunoassay using D2-labeled cAMP and a cryptate-labeled anti-cAMP antibody. Fluorescence was read in Flex Station (Molecular Devices). […] Unlabeled cAMP in the cell lysate competed with the D2-labeled cAMP against the cryptate-labeled antibody. Since a decrease in the measured intensity of the FRET signals represents a level of cAMP in the cells, the cAMP activities of the compounds are calculated as a change in FRET signals by adjusting an amount of dimethyl sulfoxide (DMSO).

[1] = 1 h at 37° C., six concentrations, read-out: EC50

| SMILES | EC50 [1] | EC50 (read-out: EC50 value) |
| --- | --- | --- |
| CC(C)c1noc(N2CCC(COc3ccc(C4=CCC(C(=O)NC[C@@H](C)O)CC4)nc3)CC2)n1 (stereo partly drawn) [Example 38, N-((R)-2-hydroxypropyl)-4-(5-((1-(3-isopropyl-1,2,4-oxadiazol-5-yl)piperidin-4-yl)methoxy)pyridin-2-yl)cyclohex-3-enecarboxamide] | 0.45 µM |  |
| CC(C)c1noc(N2CCC(COc3ccc(C4=CCC(C(=O)NC[C@H](C)O)CC4)nc3)CC2)n1 (stereo partly drawn) [Example 39, N-((S)-2-hydroxypropyl)-4-(5-((1-(3-isopropyl-1,2,4-oxadiazol-5-yl)piperidin-4-yl)methoxy)pyridin-2-yl)cyclohex-3-enecarboxamide] | 0.35 µM |  |
| CC(C)c1noc(N2CCC(COc3ccc(C4=CCC(C(=O)NC[C@@H](O)CO)CC4)nc3)CC2)n1 (stereo partly drawn) [Example 40, N-((R)-2,3-dihydroxypropyl)-4-(5-((1-(3-isopropyl-1,2,4-oxadiazol-5-yl)piperidin-4-yl)methoxy)pyridin-2-yl)cyclohex-3-enecarboxamide] | 0.5 µM |  |
| CC(C)c1noc(N2CCC(COc3ccc(C4=CCC(C(=O)NC[C@H](O)CO)CC4)nc3)CC2)n1 (stereo partly drawn) [Example 41, N-((S)-2,3-dihydroxypropyl)-4-(5-((1-(3-isopropyl-1,2,4-oxadiazol-5-yl)piperidin-4-yl)methoxy)pyridin-2-yl)cyclohex-3-enecarboxamide] | 0.65 µM |  |
| CC(C)(C)OC(=O)N1CCC(COc2ccc(C3=CCC(C(=O)N4CC[C@H](O)C4)CC3)cn2)CC1 (stereo partly drawn) [Example 42, tert-butyl 4-((5-(4-((S)-3-hydroxypyrrolidine-1-carbonyl)cyclohex-1-enyl)pyridin-2-yloxy)methyl)piperidine-1-carboxylate] | 0.082 µM |  |
| CC(C)(C)OC(=O)N1CCC(COc2ccc(C3=CCC(C(=O)N4CC[C@@H](O)C4)CC3)cn2)CC1 (stereo partly drawn) [Example 43, tert-butyl 4-((5-(4-((R)-3-hydroxypyrrolidine-1-carbonyl)cyclohex-1-enyl)pyridin-2-yloxy)methyl)piperidine-1-carboxylate] | 0.085 µM |  |
| CC(C)(C)OC(=O)N1CCC(COc2ccc(C3=CCC(C(=O)N4CC[C@H](O)C4)CC3)cc2F)CC1 (stereo partly drawn) [Example 44, tert-butyl 4-((2-fluoro-4-(4-((S)-3-hydroxypyrrolidine-1-carbonyl)cyclohex-1-enyl)phenoxy)methyl)piperidine-1-carboxylate] | 0.013 µM | ≤ 0.05 µM |
| CC(C)(C)OC(=O)N1CCC(COc2ccc(C3=CCC(C(=O)N4CC[C@@H](O)C4)CC3)cc2F)CC1 (stereo partly drawn) [Example 45, tert-butyl 4-((2-fluoro-4-(4-((R)-3-hydroxypyrrolidine-1-carbonyl)cyclohex-1-enyl)phenoxy)methyl)piperidine-1-carboxylate] | 0.025 µM | ≤ 0.05 µM |
| CC(C)c1noc(N2CCC(COc3ccc(C4=CCC(C(=O)NC(CO)CO)CC4)nc3)CC2)n1 (stereo not drawn) [Example 46, N-(1,3-dihydroxypropan-2-yl)-4-(5-((1-(3-isopropyl-1,2,4-oxadiazol-5-yl)piperidin-4-yl)methoxy)pyridin-2-yl)cyclohex-3-enecarboxamide] | 0.5 µM |  |
| CC(C)c1noc(N2CCC(COc3ccc(C4=CCC(C(=O)NCC(C)(C)CO)CC4)nc3)CC2)n1 (stereo not drawn) [Example 47, N-(3-hydroxy-2,2-dimethylpropyl)-4-(5-((1-(3-isopropyl-1,2,4-oxadiazol-5-yl)piperidin-4-yl)methoxy)pyridin-2-yl)cyclohex-3-enecarboxamide] | 0.15 µM |  |
| CC(C)c1noc(N2CCC(COc3ccc(C4=CCC(C(=O)N5CC[C@H](O)C5)CC4)cc3)CC2)n1 (stereo partly drawn) [Example 49, ((S)-3-hydroxypyrrolidin-1-yl)(4-(4-((1-(3-isopropyl-1,2,4-oxadiazol-5-yl)piperidin-4-yl)methoxy)phenyl)cyclohex-3-enyl)methanone] | 0.026 µM | ≤ 0.05 µM |
| CCc1cnc(N2CCC(COc3ccc(C4=CCC(C(=O)NCC(F)F)CC4)cc3)CC2)nc1 (stereo not drawn) [Example 50, N-(2,2-difluoroethyl)-4-(4-((1-(5-ethylpyrimidin-2-yl)piperidin-4-yl)methoxy)phenyl)cyclohex-3-enecarboxamide] | 0.095 µM |  |
| CC(C)c1noc(N2CCC(COc3ccc(C4=CCC(C(=O)NCC(F)F)CC4)cc3)CC2)n1 (stereo not drawn) [Example 51, N-(2,2-difluoroethyl)-4-(4-((1-(3-isopropyl-1,2,4-oxadiazol-5-yl)piperidin-4-yl)methoxy)phenyl)cyclohex-3-enecarboxamide] | 0.066 µM |  |
| CC(C)c1noc(N2CCC(COc3ccc(C4=CCC(C(=O)N5CCCC5)CC4)cc3)CC2)n1 (stereo not drawn) [Example 52, (4-(4-((1-(3-isopropyl-1,2,4-oxadiazol-5-yl)piperidin-4-yl)methoxy)phenyl)cyclohex-3-enyl)(pyrrolidin-1-yl)methanone] | 0.055 µM |  |
| CC(C)c1noc(N2CCC(COc3ccc(C4=CCC(C(=O)N5CC[C@H](F)C5)CC4)cc3)CC2)n1 (stereo partly drawn) [Example 53, ((S)-3-fluoropyrrolidin-1-yl)(4-(4-((1-(3-isopropyl-1,2,4-oxadiazol-5-yl)piperidin-4-yl)methoxy)phenyl)cyclohex-3-enyl)methanone] | 0.021 µM | ≤ 0.05 µM |
| CC(C)c1noc(N2CCC(COc3ccc(C4=CCC(C(=O)N5CC[C@@H](F)C5)CC4)cc3)CC2)n1 (stereo partly drawn) [Example 54, ((R)-3-fluoropyrrolidin-1-yl)(4-(4-((1-(3-isopropyl-1,2,4-oxadiazol-5-yl)piperidin-4-yl)methoxy)phenyl)cyclohex-3-enyl)methanone] | 0.042 µM | ≤ 0.05 µM |
| CCc1cnc(N2CCC(COc3ccc(C4=CCC(C(=O)N5CCN(CC)CC5)CC4)cc3)CC2)nc1 (stereo not drawn) [Example 55, (4-ethylpiperazin-1-yl)(4-(4-((1-(5-ethylpyrimidin-2-yl)piperidin-4-yl)methoxy)phenyl)cyclohex-3-enyl)methanone] | 0.1 µM |  |
| CC(C)c1noc(N2CCC(COc3ccc(C4=CCC(C(=O)N5CCCCC5)CC4)cc3)CC2)n1 (stereo not drawn) [Example 56, (4-(4-((1-(3-isopropyl-1,2,4-oxadiazol-5-yl)piperidin-4-yl)methoxy)phenyl)cyclohex-3-enyl)(piperidin-1-yl)methanone] | 0.03 µM | ≤ 0.05 µM |
| CC(C)(C)OC(=O)N1CCC(COc2ccc(C3=CCC(C(=O)N4CC[C@H](F)C4)CC3)cc2F)CC1 (stereo partly drawn) [Example 57, tert-butyl 4-((2-fluoro-4-(4-((S)-3-fluoropyrrolidine-1-carbonyl)cyclohex-1-enyl)phenoxy)methyl)piperidine-1-carboxylate] | 0.008 µM | ≤ 0.05 µM |
| CC(C)(C)OC(=O)N1CCC(COc2ccc(C3=CCC(C(=O)N4CC[C@@H](F)C4)CC3)cc2F)CC1 (stereo partly drawn) [Example 58, tert-butyl 4-((2-fluoro-4-(4-((R)-3-fluoropyrrolidine-1-carbonyl)cyclohex-1-enyl)phenoxy)methyl)piperidine-1-carboxylate] |  | ≤ 0.05 µM |
| C[C@@H](CO)NC(=O)C1CC=C(c2ccc(OCC3CCN(C(=O)OC(C)(C)C)CC3)c(F)c2)CC1 (stereo partly drawn) [Example 59, tert-butyl 4-((2-fluoro-4-(4-((S)-1-hydroxypropan-2-ylcarbamoyl)cyclohex-1-enyl)phenoxy)methyl)piperidine-1-carboxylate] | 0.078 µM |  |
| C[C@H](CO)NC(=O)C1CC=C(c2ccc(OCC3CCN(C(=O)OC(C)(C)C)CC3)c(F)c2)CC1 (stereo partly drawn) [Example 60, tert-butyl 4-((2-fluoro-4-(4-((R)-1-hydroxypropan-2-ylcarbamoyl)cyclohex-1-enyl)phenoxy)methyl)piperidine-1-carboxylate] | 0.04 µM | ≤ 0.05 µM |
| C[C@H](O)CNC(=O)C1CC=C(c2ccc(OCC3CCN(C(=O)OC(C)(C)C)CC3)c(F)c2)CC1 (stereo partly drawn) [Example 61, tert-butyl 4-((2-fluoro-4-(4-((S)-2-hydroxypropylcarbamoyl)cyclohex-1-enyl)phenoxy)methyl)piperidine-1-carboxylate] | 0.045 µM | ≤ 0.05 µM |
| C[C@@H](O)CNC(=O)C1CC=C(c2ccc(OCC3CCN(C(=O)OC(C)(C)C)CC3)c(F)c2)CC1 (stereo partly drawn) [Example 62, tert-butyl 4-((2-fluoro-4-(4-((R)-2-hydroxypropylcarbamoyl)cyclohex-1-enyl)phenoxy)methyl)piperidine-1-carboxylate] | 0.07 µM |  |
| CC(C)(C)OC(=O)N1CCC(COc2ccc(C3=CCC(C(=O)NC[C@H](O)CO)CC3)cc2F)CC1 (stereo partly drawn) [Example 63, tert-butyl 4-((4-(4-((S)-2,3-dihydroxypropylcarbamoyl)cyclohex-1-enyl)-2-fluorophenoxy)methyl)piperidine-1-carboxylate] | 0.11 µM |  |
| CC(C)(C)OC(=O)N1CCC(COc2ccc(C3=CCC(C(=O)NC[C@@H](O)CO)CC3)cc2F)CC1 (stereo partly drawn) [Example 64, tert-butyl 4-((4-(4-((R)-2,3-dihydroxypropylcarbamoyl)cyclohex-1-enyl)-2-fluorophenoxy)methyl)piperidine-1-carboxylate] | 0.05 µM | ≤ 0.05 µM |
